From patent US20230144824A1, “1H-PYRAZOLO[4,3-d]PYRIMIDINE COMPOUNDS AS TOLL-LIKE RECEPTOR 7 (TLR7) AGONISTS” (BRISTOL-MYERS SQUIBB COMPANY, priority 2020, published 2023)

Columns and labels:
human TLR7 = biological target: T1, human TLR7 (Homo sapiens, UniProt Q9NYK1); assay: Human TLR7 agonist activity assay (HEK-Blue TLR7 SEAP reporter); type: cell-based; settings: HEK-Blue TLR7 cells, 18 h treatment, average where assay performed multiple times, read-out: hTLR7 Agonism EC50
T1 construct: host or cells: HEK-Blue TLR7 cells (engineered human embryonic kidney cells)
T1 sequence (Q9NYK1 27-1049): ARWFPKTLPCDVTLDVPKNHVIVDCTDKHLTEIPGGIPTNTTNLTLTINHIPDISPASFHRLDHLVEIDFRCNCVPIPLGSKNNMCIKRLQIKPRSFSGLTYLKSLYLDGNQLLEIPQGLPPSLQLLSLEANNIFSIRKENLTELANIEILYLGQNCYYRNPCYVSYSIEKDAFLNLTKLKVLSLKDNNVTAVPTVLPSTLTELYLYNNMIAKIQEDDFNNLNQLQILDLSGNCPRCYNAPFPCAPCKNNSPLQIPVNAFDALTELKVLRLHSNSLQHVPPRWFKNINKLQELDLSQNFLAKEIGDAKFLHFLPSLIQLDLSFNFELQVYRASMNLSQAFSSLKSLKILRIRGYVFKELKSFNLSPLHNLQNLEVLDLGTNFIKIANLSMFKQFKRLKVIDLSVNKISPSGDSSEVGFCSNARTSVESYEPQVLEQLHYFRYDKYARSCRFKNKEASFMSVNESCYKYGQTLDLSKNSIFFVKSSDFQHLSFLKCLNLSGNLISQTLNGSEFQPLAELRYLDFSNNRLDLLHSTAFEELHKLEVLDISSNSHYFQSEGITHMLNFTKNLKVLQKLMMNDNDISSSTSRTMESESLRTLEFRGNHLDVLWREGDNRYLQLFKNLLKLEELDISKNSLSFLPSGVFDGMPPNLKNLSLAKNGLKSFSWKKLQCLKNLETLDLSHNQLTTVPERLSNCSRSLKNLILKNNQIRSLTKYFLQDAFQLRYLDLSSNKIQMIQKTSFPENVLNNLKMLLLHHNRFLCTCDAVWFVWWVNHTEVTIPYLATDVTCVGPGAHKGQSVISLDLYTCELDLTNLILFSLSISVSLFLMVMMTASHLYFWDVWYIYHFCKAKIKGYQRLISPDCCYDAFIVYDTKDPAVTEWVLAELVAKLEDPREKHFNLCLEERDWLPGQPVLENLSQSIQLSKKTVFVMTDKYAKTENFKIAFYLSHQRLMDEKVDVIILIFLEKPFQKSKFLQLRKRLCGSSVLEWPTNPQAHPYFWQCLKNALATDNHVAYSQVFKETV
Procedure, shortened: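 HEK-Blue TLR7 cells (15,000/well) treated with compound for 18 h at 37 °C, 5% CO2. Secreted SEAP measured with Quanti-Blue, 30 min, OD 620 nm. EC50 taken as concentration giving half-maximal response between baseline and maximum.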

CD69 = assay: Induction of CD69 in human whole blood; type: cell-based; settings: Homo sapiens, 17 h, 100% set to 1 uM of resiquimod, average where assay performed multiple times, read-out: hWB CD69 EC50
Procedure, shortened: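 Heparinized human whole blood treated with TLR7 agonist at final 1 uM and incubated 17 h at 37° C. CD69 surface staining alongside CD14 and CD19, then fix/lysis and flow cytometry on iQuePlus. Curves fitted with 1 uM resiquimod set as 100%.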

Row | EC50 (human TLR7) | EC50 (CD69) | SMILES
1 | 309 nM | 55.5 nM | CCC[C@@H](CCO)Nc1nc(N)nc2cnn(Cc3ncc(N4CCNCC4)cc3OC)c12 [Compound 171, (3S)-3-[(5-amino-1-{[3-methoxy-5-(piperazin-1-yl)pyridin-2-yl]methyl}-1H-pyrazolo[4,3-d]pyrimidin-7-yl)amino]hexan-1-ol]
2 | 19.9 nM | 10.8 nM | CCC[C@@H](CCO)Nc1nc(N)nc2cnn(Cc3ncc(N4CCN(CC(C)(C)O)CC4)cc3OC)c12 [Compound 172, (3S)-3-{[5-amino-1-({5-[4-(2-hydroxy-2-methylpropyl)piperazin-1-yl]-3-methoxypyridin-2-yl}methyl)-1H-pyrazolo[4,3-d]pyrimidin-7-yl]amino}hexan-1-ol]
3 | 89.9 nM | 4.8 nM | CCC[C@@H](CCO)Nc1nc(N)nc2cnn(Cc3cnc(C4CCN(CCO)CC4)cc3OC)c12 [Compound 173, (3S)-3-{[5-amino-1-({6-[1-(2-hydroxyethyl)piperidin-4-yl]-4-methoxypyridin-3-yl}methyl)-1H-pyrazolo[4,3-d]pyrimidin-7-yl]amino}hexan-1-ol]
4 | 11 nM | 2.9 nM | CCC[C@@H](CCO)Nc1nc(N)nc2cnn(Cc3cnc(C4CCN(C)CC4)cc3OC)c12 [Compound 174, (3S)-3-[(5-amino-1-{[4-methoxy-6-(1-methylpiperidin-4-yl)pyridin-3-yl]methyl}-1H-pyrazolo[4,3-d]pyrimidin-7-yl)amino]hexan-1-ol]
5 | 8.8 nM | 0.91 nM | CCC[C@@H](CCO)Nc1nc(N)nc2cnn(Cc3ccc(C4CCCN4)cc3OC)c12 (stereo partly drawn) [Compound 175, (3S)-3-[(5-amino-1-{[2-methoxy-4-(pyrrolidin-2-yl)phenyl]methyl}-1H-pyrazolo[4,3-d]pyrimidin-7-yl)amino]hexan-1-ol]
6 | 4.8 nM | 0.21 nM | CCC[C@@H](CCO)Nc1nc(N)nc2cnn(Cc3cnc(C4CCN(CC(C)(C)O)CC4)cc3OC)c12 [Compound 176, (3S)-3-{[5-amino-1-({6-[1-(2-hydroxy-2-methylpropyl)piperidin-4-yl]-4-methoxypyridin-3-yl}methyl)-1H-pyrazolo[4,3-d]pyrimidin-7-yl]amino}hexan-1-ol]
7 | 579 nM | 9.9 nM | CCC[C@@H](CCO)Nc1nc(N)nc2cnn(Cc3nnc(C4CCN(C(C)C)CC4)cc3OC)c12 [Compound 177, (3S)-3-{[5-amino-1-({4-methoxy-6-[1-(propan-2-yl)piperidin-4-yl]pyridazin-3-yl}methyl)-1H-pyrazolo[4,3-d]pyrimidin-7-yl]amino}hexan-1-ol]
8 | 279 nM | 2 nM | CCC[C@@H](CCO)Nc1nc(N)nc2cnn(Cc3ncc(C4CCCN4)cc3OC)c12 (stereo partly drawn) [Compound 178, (3S)-3-[(5-amino-1-{[3-methoxy-5-(pyrrolidin-2-yl)pyridin-2-yl]methyl}-1H-pyrazolo[4,3-d]pyrimidin-7-yl)amino]hexan-1-ol]
9 | 235 nM | 2.8 nM | CCC[C@@H](CCO)Nc1nc(N)nc2cnn(Cc3ncc(C4CCCCN4)cc3OC)c12 (stereo partly drawn) [Compound 179, (3S)-3-[(5-amino-1-{[3-methoxy-5-(piperidin-2-yl)pyridin-2-yl]methyl}-1H-pyrazolo[4,3-d]pyrimidin-7-yl)amino]hexan-1-ol]
10 | 67.9 nM | 7.2 nM | CCC[C@@H](CCO)Nc1nc(N)nc2cnn(Cc3ccc(C4CNCCN4)cc3OC)c12 (stereo partly drawn) [Compound 180, (3S)-3-[(5-amino-1-{[2-methoxy-4-(piperazin-2-yl)phenyl]methyl}-1H-pyrazolo[4,3-d]pyrimidin-7-yl)amino]hexan-1-ol]

Second part, the compound before the results:

Row | SMILES | EC50 (human TLR7) | EC50 (CD69)
11 | COc1cc(C2CCN(C3CC4(COC4)C3)CC2)cnc1Cn1ncc2nc(N)nc(NCC3CC4(CC4)C3)c21 (centres unmarked) [Compound 154, 1-{[3-methoxy-5-(1-{2-oxaspiro[3.3]heptan-6-yl}piperidin-4-yl)pyridin-2-yl]methyl}-N7-({spiro[2.3]hexan-5-yl}methyl)-1H-pyrazolo[4,3-d]pyrimidine-5,7-diamine] | 34 nM | 7.1 nM
12 | COc1cc(C2CCN(C3CCOCC3)CC2)cnc1Cn1ncc2nc(N)nc(NCC3CC4(CC4)C3)c21 [Compound 157, 1-({3-methoxy-5-[1-(oxan-4-yl)piperidin-4-yl]pyridin-2-yl}methyl)-N7-({spiro[2.3]hexan-5-yl}methyl)-1H-pyrazolo[4,3-d]pyrimidine-5,7-diamine] | 50.8 nM | 37 nM
13 | COc1cc(C2CCN(C3CNC3)CC2)cnc1Cn1ncc2nc(N)nc(NCC3CC4(CC4)C3)c21 [Compound 158, 1-({5-[1-(azetidin-3-yl)piperidin-4-yl]-3-methoxypyridin-2-yl}methyl)-N7-({spiro[2.3]hexan-5-yl}methyl)-1H-pyrazolo[4,3-d]pyrimidine-5,7-diamine] | 224 nM | 69.4 nM
14 | COc1cc(C2CCN(C)CC2)cnc1Cn1ncc2nc(N)nc(NCC3CC4(CC4)C3)c21 [Compound 159, 1-{[3-methoxy-5-(1-methylpiperidin-4-yl)pyridin-2-yl]methyl}-N7-({spiro[2.3]hexan-5-yl}methyl)-1H-pyrazolo[4,3-d]pyrimidine-5,7-diamine] | 62 nM | 4.1 nM
15 | CCCCNc1nc(N)nc2cnn(Cc3ccc(C4CCN(S(C)(=O)=O)CC4)cc3OC)c12 [Compound 161, N7-butyl-1-{[4-(1-methanesulfonylpiperidin-4-yl)-2-methoxyphenyl]methyl}-1H-pyrazolo[4,3-d]pyrimidine-5,7-diamine] | 107 nM | 36 nM
16 | CCCCNc1nc(N)nc2cnn(Cc3ccc(C4CCN(C)CC4)cc3OC)c12 [Compound 163, N7-butyl-1-{[2-methoxy-4-(1-methylpiperidin-4-yl)phenyl]methyl}-1H-pyrazolo[4,3-d]pyrimidine-5,7-diamine] | 5 nM | 0.065 nM
17 | CCC[C@@H](CCO)Nc1nc(N)nc2cnn(Cc3ncc(C4CCN(CCN(C)C)CC4)cc3OC)c12 [Compound 164, (3S)-3-({5-amino-1-[(5-{1-[2-(dimethylamino)ethyl]piperidin-4-yl}-3-methoxypyridin-2-yl)methyl]-1H-pyrazolo[4,3-d]pyrimidin-7-yl}amino)hexan-1-ol] | 41 nM | 3.9 nM
18 | CCC[C@@H](CCO)Nc1nc(N)nc2cnn(Cc3cnc(C4CCNCC4)cc3OC)c12 [Compound 166, (3S)-3-[(5-amino-1-{[4-methoxy-6-(piperidin-4-yl)pyridin-3-yl]methyl}-1H-pyrazolo[4,3-d]pyrimidin-7-yl)amino]hexan-1-ol] | 45.5 nM | 22.5 nM
19 | CCC[C@@H](CCO)Nc1nc(N)nc2cnn(Cc3cnc(C4CCN(C(C)C)CC4)cc3OC)c12 [Compound 167, (3S)-3-{[5-amino-1-({4-methoxy-6-[1-(propan-2-yl)piperidin-4-yl]pyridin-3-yl}methyl)-1H-pyrazolo[4,3-d]pyrimidin-7-yl]amino}hexan-1-ol] | 9.4 nM | 0.17 nM
20 | CCC[C@@H](CCO)Nc1nc(N)nc2cnn(Cc3cnc(C4CCN(C5CCOCC5)CC4)cc3OC)c12 [Compound 168, (3S)-3-{[5-amino-1-({4-methoxy-6-[1-(oxan-4-yl)piperidin-4-yl]pyridin-3-yl}methyl)-1H-pyrazolo[4,3-d]pyrimidin-7-yl]amino}hexan-1-ol] | 6.8 nM | 0.47 nM
21 | CCCCNc1nc(N)nc2cnn(Cc3ncc(C4=CC(C)(C)NC(C)(C)C4)cc3OC)c12 [Compound 169, N7-butyl-1-({5-methoxy-2′,2′,6′,6′-tetramethyl-1′,2′,3′,6′-tetrahydro-[3,4′-bipyridine]-6-yl}methyl)-1H-pyrazolo[4,3-d]pyrimidine-5,7-diamine] | 496 nM | 121 nM
22 | CCCCNc1nc(N)nc2cnn(Cc3ncc(C4CC(C)(C)NC(C)(C)C4)cc3OC)c12 [Compound 170, N7-butyl-1-{[3-methoxy-5-(2,2,6,6-tetramethylpiperidin-4-yl)pyridin-2-yl]methyl}-1H-pyrazolo[4,3-d]pyrimidine-5,7-diamine] | 209 nM | 42.6 nM
